This is an account of results in patent publication WO2007026771A1, “点滴用注射剤” (Ono Pharmaceutical Co Ltd, priority 2005, dated 2007).

Entries after “also recorded” stand apart in the source; their conditions may differ.

Data set [1] can be described thus: Solubility of compound A in water at various pH values (5℃, 24 h, HPLC). It is filed as physicochemical.
The nature of data set [2]: pH of supernatant of aqueous suspension of compound A. It is filed as physicochemical.
Data set [3] has as its target poly(ADP-ribose) polymerase (PARP) [ポリ(ADP−リボース)ポリメラーゼ] (Homo sapiens, UniProt P09874). The conditions noted are these: cited from earlier work.

Sequence of poly(ADP-ribose) polymerase (PARP) [ポリ(ADP−リボース)ポリメラーゼ] (P09874 whole entry): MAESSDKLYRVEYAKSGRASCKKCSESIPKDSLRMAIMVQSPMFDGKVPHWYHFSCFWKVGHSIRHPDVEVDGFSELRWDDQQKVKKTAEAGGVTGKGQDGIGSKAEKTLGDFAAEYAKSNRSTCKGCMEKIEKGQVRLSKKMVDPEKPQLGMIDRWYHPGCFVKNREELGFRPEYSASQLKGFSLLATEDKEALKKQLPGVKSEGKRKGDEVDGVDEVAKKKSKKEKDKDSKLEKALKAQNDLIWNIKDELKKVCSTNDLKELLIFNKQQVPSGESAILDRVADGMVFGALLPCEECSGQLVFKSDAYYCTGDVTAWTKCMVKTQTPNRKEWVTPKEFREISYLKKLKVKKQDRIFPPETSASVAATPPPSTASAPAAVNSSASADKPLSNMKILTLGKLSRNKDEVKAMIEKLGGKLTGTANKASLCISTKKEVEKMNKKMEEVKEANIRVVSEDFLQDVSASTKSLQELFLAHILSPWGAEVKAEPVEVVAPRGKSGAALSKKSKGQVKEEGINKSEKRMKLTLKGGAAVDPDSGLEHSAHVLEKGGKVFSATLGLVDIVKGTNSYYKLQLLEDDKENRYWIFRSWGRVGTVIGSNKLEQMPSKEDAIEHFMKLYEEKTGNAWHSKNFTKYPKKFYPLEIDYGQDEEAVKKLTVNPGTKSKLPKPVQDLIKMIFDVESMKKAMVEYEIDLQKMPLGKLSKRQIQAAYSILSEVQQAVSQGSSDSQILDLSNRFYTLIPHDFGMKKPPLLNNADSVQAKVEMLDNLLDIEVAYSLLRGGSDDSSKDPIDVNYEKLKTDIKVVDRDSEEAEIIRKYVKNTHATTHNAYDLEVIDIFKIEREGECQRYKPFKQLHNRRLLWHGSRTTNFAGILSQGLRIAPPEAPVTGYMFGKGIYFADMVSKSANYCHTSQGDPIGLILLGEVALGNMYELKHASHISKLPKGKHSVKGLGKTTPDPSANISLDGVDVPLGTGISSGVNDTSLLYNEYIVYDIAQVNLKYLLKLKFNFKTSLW

On to `O=C(Cc1n[nH]c(=O)c2c1CCCC2)NCCCCN1CCOCC1` [化合物A, 4−(N−(4−(モルホリン−4−イル)ブチル)カルバモイルメチル)−5,6,7,8−テトラヒドロフタラジン−1(2H)−オン], for which the dissolution in water entry in data set [1] (near neutral (e.g. pH 6 or above)) is “速やかに水に溶解せず”; in data set [1] (pH about 5 or below) it was “速やかに水に溶解する”. Besides, the solubility in water result in data set [1] (pH 8 or above) is “低い”; in data set [1] (pH about 7 or below (adjusted)), “著しく上昇; also recorded: 著しく向上”; in data set [1] (water), “極めて低く”. In addition, in data set [2], the “pH of supernatant of aqueous suspension” value is around 9.4. The PARP inhibitory activity result in data set [3] is reported as “阻害活性を有する; also recorded: PARP阻害活性を有する”. The toxicity entry in “Toxicity of compound A” was “非常に低い”.
